Assays:
[1] = set-up: method as in PMID 28640225; conditions: rats; cited from earlier work
[2] = Stability of DAS in rat plasma QC samples; format: in vitro ADME; conditions: DAS solutions, 4°C, n = 6, read-out: Mean recovery (%) ±RSD, refrigerator stability
[3] = Stability of DAS solutions; format: physicochemical
[4] = Pharmacokinetic interaction study of oral DAS with nutraceuticals in acetic acid-induced UC Wistar rats (UPLC-MS/MS of plasma); format: in vivo; conditions: DAS 25 mg/kg oral
Description: Calibration standards, QC samples, as well as blank plasma samples were centrifugated at 6000 rpm for 5 min. Following the separation of the methanolic supernatants, the residues of individual samples were separately washed with 0.5 mL volumes of methanol. The combined supernatant and washing of each sample were cleaned-up by passing onto STRATA® C 18-E (200 mg, 3 mL) SPE cartridges, previously preconditioned with 3.0 mL methanol followed by 3.0 mL ultrapure water. The retained drugs were eluted from each sample using separate volumes of 0.5 mL methanol. Following the evaporation of the eluted methanolic solutions to dryness under nitrogen, the residue was reconstituted in 0.5 mL acetonitrile. Finally, UPLC–MS/MS analysis of the reconstituted samples was performed by injecting 5 μL volumes of each sample under the operating conditions.
Wistar healthy male rats weighing 250 ± 30 g were provided by the animal house, Women Student-Medical studies & Sciences Sections, College of Pharmacy, King Saud University, Riyadh, Saudi Arabia. The rats were placed in cages kept in a well-ventilated room and subjected to a regular 12 h day–night cycle at a relative humidity of 40–60% and average temperature of 24–27°C. All the rats could access the water freely while diet was prohibited for 12 h before drug administration. The rats were acclimatized for 7 days to laboratory conditions before conducting the experiment. Seven groups of five rats each were involved in the study. For all rats, UC was induced by oral daily administration of 1 mL volumes of 5% glacial acetic acid in water for three successive days. DAS suspension was prepared by triturating 125 mg of DAS with 5 mL aqueous methyl cellulose (0.5%, w/v) to prepare DAS suspension of 25 mg/mL, given to all groups with the exception of group V where olive oil was used for the suspension preparation. Curcumin preparations (50 mg/mL) were prepared by suspending the content of one capsule of either Curcumin 95 500 mg or Super Bio-Curcumin 400 mg in 10 mL or 8 mL volumes of water, respectively. By analogy, a suspension of 50 mg/mL olive leaf extract was prepared by suspending the content of one capsule into 10 mL water. However, for cocoa preparations, 450 mg cocoa extract/ 5 mL, aqueous suspensions of either CocoaVia® capsules or CocoaVia® unsweetened dark chocolate powder were prepared by suspending the content of one capsule or 2 g powder, respectively in water. Separate volumes (0.25 mL) of DAS suspension were orally administered to all treated animals using a gavage needle so that all rats received DAS dose of 25 mg/kg. For the purpose of comparison, rats of group I were only treated with DAS. Rats of groups II and III, curcumin groups, were first separately given an oral dose of […] of either Super Bio-Curcumin, curcumin I (rat group II) or Curcumin 95, curcumin II (rat group III). Then 30 min following curcumin administration, DAS suspension was given to the rats in a dose of 25 mg/kg. Rats of groups IV and V, the olive oil groups, were administered olive oil as follows; rats of group IV were separately given an oral dose of olive leaf extract, olive oil I, 50 mg/kg 30 min prior to DAS administration (25 mg/kg), while rats of groups V were separately given an oral dose of DAS suspended in olive oil, olive oil II (25 mg/kg). Finally, rats of groups VI and VII, cocoa groups, were initially given an oral dose of CocoaVia® capsules, cocoa I, 90 mg/kg (rat group VI), or CocoaVia® unsweetened dark chocolate, cocoa II, 90 mg/kg (rat group VII) 30 min before DAS dosing of 25 mg/kg. For each group, volumes of 0.3 mL blood samples were withdrawn from the retro-orbital sinus of each rat into heparinized tubes. Blood samples were collected at different time intervals; 0 (prior to dosing), 0.5, 1, 2, 3, 5, 6, and 24 h following DAS administration. All collected blood samples were centrifuged immediately at 4,500 rpm (30 min, 4°C).

[5] = Stability of DAS in rat plasma QC samples; format: in vitro ADME
Description: QC samples spiked at two concentration levels of DAS, low (3 ng/mL) and high (450 ng/mL), were analyzed (n = 6) in order to assess the drug stability in plasma. Stability testing were performed by exposing the QC plasma samples to different conditions, namely auto-sampler stability (extracted samples left in the auto-sampler at 10°C for 56 h before injection), short-term (bench-top) stability (samples left at room temperature (25 °C) for 6 h), and long-term stability (samples left at -30°C for 30 days). Moreover, freeze-thaw stability was assessed as follows, plasma samples were frozen at around -30°C and then thawed at room temperature for three cycles. For each sample, DAS concentrations were related to the nominal concentrations to calculate the % recovery.

[6] = male, Wistar, rat, DAS in plasma, n = 5, mean±SD

CC(=O)N1CCN(c2ccc(OCC3COC(Cn4ccnc4)(c4ccc(Cl)cc4Cl)O3)cc2)CC1 (stereo not shown) [ketoconazole]
effect of co-administration on the PK of sorafenib [1]: did not cause a significant effect

Cc1nc(Nc2ncc(C(=O)Nc3c(C)cccc3Cl)s2)cc(N2CCN(CCO)CC2)n1 [DAS, Dasatinib]
recovery at 3 months, 3 ng/mL ([2]; 3 ng/mL): 99.9%
recovery at 3 months, 450 ng/mL ([2]; 450 ng/mL): 98.1%
stability of DAS solutions ([3]; room temperature for 6 h): stable
stability of DAS solutions ([3]; up to 3 months at the refrigerator (4°C)): stable
CL ([4]; DAS, n = 5, mean±SD): 9.17 ± 4.01 L/h/kg
Vd ([4]; DAS, n = 5, mean±SD): 238.12 ± 44.22 L/kg
AUC(0-inf) [4, 6]: 2660 ± 596 ng·h/mL
AUC(0-t) [4, 6]: 1640 ± 681 ng·h/mL
Tmax [4, 6]: 30.6 ± 4.8 min
Cmax ([4]; male, Wistar, rat, DAS in plasma, n = 5, mean±SD, nutraceutical given orally 30 min before DAS (olive oil II: DAS suspended in it)): 230 ± 31 ng/mL
MRT last ([4]; male, Wistar, rat, DAS in plasma, n = 5, mean±SD, read-out: MRT0-t): 8.6 ± 0.88 h
MRT inf ([4]; male, Wistar, rat, DAS in plasma, n = 5, mean±SD, read-out: MRT0-∞): 24.4 ± 4.29 h
half-life ([4]; male, Wistar, rat, DAS in plasma, n = 5, mean±SD, read-out: t½ (converted)): 1070 ± 129 min
concentration at 0 h ([4]; male, Wistar, rat, plasma, time 0 h (prior to dosing), read-out: Conc*10 (ng/mL plasma), average DAS plasma concentration): 28.6 ng/mL
concentration at 0.5 h ([4]; male, Wistar, rat, plasma, time 0.5 h, read-out: Conc*10 (ng/mL plasma), average DAS plasma concentration): 236 ng/mL
concentration at 1 h ([4]; male, Wistar, rat, plasma, time 1 h, read-out: Conc*10 (ng/mL plasma), average DAS plasma concentration): 153 ng/mL
concentration at 2 h ([4]; male, Wistar, rat, plasma, time 2 h, read-out: Conc*10 (ng/mL plasma), average DAS plasma concentration): 117 ng/mL
concentration at 3 h ([4]; male, Wistar, rat, plasma, time 3 h, read-out: Conc*10 (ng/mL plasma), average DAS plasma concentration): 99.7 ng/mL
concentration at 5 h ([4]; male, Wistar, rat, plasma, time 5 h, read-out: Conc*10 (ng/mL plasma), average DAS plasma concentration): 79.1 ng/mL
concentration at 6 h ([4]; male, Wistar, rat, plasma, time 6 h, read-out: Conc*10 (ng/mL plasma), average DAS plasma concentration): 69.6 ng/mL
concentration at 24 h ([4]; male, Wistar, rat, plasma, time 24 h, read-out: Conc*10 (ng/mL plasma), average DAS plasma concentration): 39.8 ng/mL
recovery at 56 h, 3 ng/mL ([5]; extracted rat plasma QC samples, 10°C, 56 h, extracted samples, 3 ng/mL in rat plasma, n = 6, read-out: Mean recovery (%) ±RSD, auto-sampler stability): 97.3%
recovery at 56 h, 450 ng/mL ([5]; extracted rat plasma QC samples, 10°C, 56 h, extracted samples, 450 ng/mL in rat plasma, n = 6, read-out: Mean recovery (%) ±RSD, auto-sampler stability): 98.5%
recovery at 6 h, 3 ng/mL ([5]; rat plasma QC samples, 25°C, 6 h, 3 ng/mL in rat plasma, n = 6, read-out: Mean recovery (%) ±RSD, short-term stability): 96.1%
recovery at 6 h, 450 ng/mL ([5]; rat plasma QC samples, 25°C, 6 h, 450 ng/mL in rat plasma, n = 6, read-out: Mean recovery (%) ±RSD, short-term stability): 97.2%
recovery at 3 freeze-thaw cycles, 3 ng/mL ([5]; rat plasma QC samples, -30°C, 3 cycles, 3 ng/mL in rat plasma, n = 6, read-out: Mean recovery (%) ±RSD, freeze-thaw stability): 101%
recovery at 3 freeze-thaw cycles, 450 ng/mL ([5]; rat plasma QC samples, -30°C, 3 cycles, 450 ng/mL in rat plasma, n = 6, read-out: Mean recovery (%) ±RSD, freeze-thaw stability): 99.5%
recovery at 30 days, 3 ng/mL ([5]; rat plasma QC samples, -30°C, 30 days, 3 ng/mL in rat plasma, n = 6, read-out: Mean recovery (%) ±RSD, long-term stability): 97.9%
recovery at 30 days, 450 ng/mL ([5]; rat plasma QC samples, -30°C, 30 days, 450 ng/mL in rat plasma, n = 6, read-out: Mean recovery (%) ±RSD, long-term stability): 97.3%
recovery ([5]; rat, rat plasma QC samples, all handling and storage conditions of Table 6, 3 and 450 ng/mL in plasma, read-out: recovery values in stability studies): ≥ 96.1%

From PMC6002064, “Validated UPLC-MS/MS method for the quantification of dasatinib in plasma: Application to pharmacokinetic interaction studies with nutraceuticals in Wistar rats” (PLoS ONE, 2018)
